US11731976B2, “3-(ethoxydifluoromethyl)-6-(5-fluoro-6-(2,2,2-trifluoroethoxy)pyridin-3-yl)-[1,2,4]triazolo[4,3-a]pyridine as an ion channel modulator” (Praxis Precision Medicines, Inc., priority 2018, dated 2023)

Biological target: T1, human NaV1.6 (hNaV1.6) (Homo sapiens, UniProt Q9UQD0)
T1 construct: expressed in transfected cells; host or cells: HEK-293
Assay: Modulation of late sodium current (INaL), PatchXpress electrophysiology, HEK-293 cells expressing hNaV1.6
Format: cell-based
Conditions: HEK293, late current evoked by 300 nM ATX-II, read-out: NaV 1.6 Assay Data: percent inhibition of INaL at hNaV1.6
Protocol: Functional characterization of exemplary compounds to modulate INaL expressed by the NaV1.6 voltage-gated sodium channel was accomplished using the PatchXpress™ high throughput electrophysiology platform (Molecular Devices, Sunnyvale, Calif.). HEK-293 cells expressing recombinant, human NaV1.6 (hNaV1.6) were grown in DMEM/high-glucose Dulbecco's modified, 10% FBS, 2 mM sodium pyruvate, 10 mM HEPES and 400 μg/mL G418. Cells were grown to 50%-80% confluency prior to harvesting. Trypsinized cells were washed, allowed to recover for 1 hour and then resuspended in extracellular recording solution at a concentration of 1×10^6 cells/ml. The onboard liquid handling facility of the PatchXpress was used for dispensing cells and applying test compounds. NaV late currents were evoked by the application of 300 nM ATX-II. INaL was evoked by depolarizing pulses to 0 mV for 200 ms from a non-inactivating holding potential (e.g., −120 mV) at a frequency of 0.1 Hz. INaL amplitude and stability were determined by analyzing the mean current amplitude over the final 20 ms of the test pulse. Following steady state block with exemplary compounds (e.g., as described herein), a Na+ free solution containing an impermeant cation (e.g., Choline or NDMG) was added to confirm the identify of the sodium current. Percent steady-state inhibition of INaL was calculated as: [(INaL_compound)/(INaL_control)]*100, where INaL_compound and INaL_control represent INaL recorded in the presence or absence of compound, respectively.

T1 sequence (Q9UQD0 whole entry): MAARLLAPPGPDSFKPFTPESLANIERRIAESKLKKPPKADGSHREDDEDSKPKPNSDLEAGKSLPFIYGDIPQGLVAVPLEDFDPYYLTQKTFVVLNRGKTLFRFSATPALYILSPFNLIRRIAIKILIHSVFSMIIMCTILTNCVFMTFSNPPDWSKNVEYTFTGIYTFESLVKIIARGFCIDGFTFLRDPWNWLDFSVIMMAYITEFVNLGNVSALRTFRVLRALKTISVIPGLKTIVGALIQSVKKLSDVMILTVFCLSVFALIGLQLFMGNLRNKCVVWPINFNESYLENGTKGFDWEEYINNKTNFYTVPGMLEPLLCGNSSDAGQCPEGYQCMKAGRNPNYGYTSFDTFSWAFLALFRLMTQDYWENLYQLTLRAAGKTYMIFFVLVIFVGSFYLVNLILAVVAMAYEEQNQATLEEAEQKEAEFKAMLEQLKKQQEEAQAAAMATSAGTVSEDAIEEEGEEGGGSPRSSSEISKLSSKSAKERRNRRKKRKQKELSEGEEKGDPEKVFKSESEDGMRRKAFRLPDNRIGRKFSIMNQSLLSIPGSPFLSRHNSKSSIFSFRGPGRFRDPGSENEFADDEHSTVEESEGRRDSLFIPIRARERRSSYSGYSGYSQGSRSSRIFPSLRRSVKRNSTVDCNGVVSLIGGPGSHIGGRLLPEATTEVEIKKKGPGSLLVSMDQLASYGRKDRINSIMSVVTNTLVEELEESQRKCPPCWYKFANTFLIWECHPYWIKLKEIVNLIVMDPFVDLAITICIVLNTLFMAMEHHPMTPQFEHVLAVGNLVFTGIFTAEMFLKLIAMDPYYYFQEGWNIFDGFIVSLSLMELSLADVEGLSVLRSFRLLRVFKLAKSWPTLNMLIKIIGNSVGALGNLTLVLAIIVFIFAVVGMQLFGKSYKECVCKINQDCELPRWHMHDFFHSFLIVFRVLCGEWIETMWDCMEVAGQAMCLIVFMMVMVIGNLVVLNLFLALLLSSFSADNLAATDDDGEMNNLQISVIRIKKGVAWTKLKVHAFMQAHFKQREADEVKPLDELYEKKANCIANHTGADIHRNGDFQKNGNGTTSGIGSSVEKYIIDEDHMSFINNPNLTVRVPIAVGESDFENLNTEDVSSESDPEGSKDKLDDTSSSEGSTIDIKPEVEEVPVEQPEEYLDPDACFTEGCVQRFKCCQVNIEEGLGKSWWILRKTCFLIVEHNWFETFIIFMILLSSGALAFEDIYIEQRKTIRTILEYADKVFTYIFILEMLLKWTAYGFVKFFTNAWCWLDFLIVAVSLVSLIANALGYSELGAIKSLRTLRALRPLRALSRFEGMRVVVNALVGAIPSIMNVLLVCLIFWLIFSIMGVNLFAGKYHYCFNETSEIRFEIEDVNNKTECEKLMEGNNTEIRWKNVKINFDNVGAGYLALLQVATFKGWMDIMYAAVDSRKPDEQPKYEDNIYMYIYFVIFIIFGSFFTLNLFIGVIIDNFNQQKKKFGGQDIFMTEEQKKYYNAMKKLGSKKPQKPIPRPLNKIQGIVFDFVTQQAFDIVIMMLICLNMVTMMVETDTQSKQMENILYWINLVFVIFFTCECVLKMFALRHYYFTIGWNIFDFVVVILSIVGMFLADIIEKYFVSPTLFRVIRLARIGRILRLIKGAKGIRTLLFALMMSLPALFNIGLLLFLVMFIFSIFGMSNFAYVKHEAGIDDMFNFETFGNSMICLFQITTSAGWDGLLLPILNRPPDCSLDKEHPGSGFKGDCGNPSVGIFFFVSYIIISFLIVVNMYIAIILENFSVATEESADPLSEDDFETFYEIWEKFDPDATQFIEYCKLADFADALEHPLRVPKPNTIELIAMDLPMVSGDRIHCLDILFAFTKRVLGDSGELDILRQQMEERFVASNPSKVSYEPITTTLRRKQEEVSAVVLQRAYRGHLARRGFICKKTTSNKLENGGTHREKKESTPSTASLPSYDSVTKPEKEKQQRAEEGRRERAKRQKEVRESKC

Row | SMILES | inhibition at 1 µM [%]
1 | CC(C)COC(F)(F)c1nnc2ccc(-c3cnc(O[C@H](C)C(F)(F)F)c(F)c3)nn12 [Compound 49, 3-[difluoro(isobutoxy)methyl]-6-[5-fluoro-6-[(1R)-2,2,2-trifluoro-1-methyl-ethoxy]-3-pyridyl]-[1,2,4]triazolo[4,3-b]pyridazine] | > 70
2 | COC(F)(F)c1nnc2cnc(-c3cnc(OC(C)(C)C(F)(F)F)c(F)c3)cn12 [Compound 15, 3-[difluoro(methoxy)methyl]-6-[5-fluoro-6-(2,2,2-trifluoro-1,1-dimethyl-ethoxy)-3-pyridyl]-[1,2,4]triazolo[4,3-a]pyrazine] | > 70
3 | COC(F)(F)c1nnc2ccc(-c3cnc(OC(C)(C)C(F)(F)F)c(F)c3)nn12 [Compound 5, 3-[difluoro(methoxy)methyl]-6-[5-fluoro-6-(2,2,2-trifluoro-1,1-dimethyl-ethoxy)-3-pyridyl]-[1,2,4]triazolo[4,3-b]pyridazine] | > 70
4 | COCc1nnc2ccc(-c3cnc(O[C@H](C)C(F)(F)F)c(F)c3)cn12 [Compound 40, 6-[5-fluoro-6-[(1R)-2,2,2-trifluoro-1-methyl-ethoxy]-3-pyridyl]-3-(methoxymethyl)-[1,2,4]triazolo[4,3-a]pyridine] | < 30
5 | CC(C)COC(F)(F)c1nnc2ccc(-c3cnc(O[C@@H](C)C(F)(F)F)c(F)c3)nn12 [Compound 47, 3-[difluoro(isobutoxy)methyl]-6-[5-fluoro-6-[(1S)-2,2,2-trifluoro-1-methyl-ethoxy]-3-pyridyl]-[1,2,4]triazolo[4,3-b]pyridazine] | > 70
6 | CCOC(F)(F)c1nnc2cnc(-c3ccc(O[C@H](C)C(F)(F)F)nc3)cn12 [Compound 86, (R)-3-(ethoxydifluoromethyl)-6-(6-((1,1,1-trifluoropropan-2-yl)oxy)pyridin-3-yl)-[1,2,4]triazolo[4,3-a]pyrazine] | > 70
7 | COCc1nnc2ccc(-c3cnc(O[C@@H](C)C(F)(F)F)c(F)c3)cn12 [Compound 43, 6-[5-fluoro-6-[(1S)-2,2,2-trifluoro-1-methyl-ethoxy]-3-pyridyl]-3-(methoxymethyl)-[1,2,4]triazolo[4,3-a]pyridine] | 30 to 70
8 | CCOC(F)(F)c1nnc2ccc(-c3cnc(OC4CC(F)(F)C4)c(F)c3)cn12 [Compound 85, 6-(6-(3,3-difluorocyclobutoxy)-5-fluoropyridin-3-yl)-3-(ethoxydifluoromethyl)-[1,2,4]triazolo[4,3-a]pyridine] | > 70
9 | COCc1nnc2cc(C)c(-c3cnc(O[C@H](C)C(F)(F)F)c(F)c3)nn12 [Compound 72, 6-[5-fluoro-6-[(1R)-2,2,2-trifluoro-1-methyl-ethoxy]-3-pyridyl]-3-(methoxymethyl)-7-methyl-[1,2,4]triazolo[4,3-b]pyridazine] | < 30
10 | COCCOC(F)(F)c1nnc2cnc(-c3ccc(OCC(F)(F)F)nc3)cn12 [Compound 89] | 30 to 70
11 | CC(C)COC(F)(F)c1nnc2cnc(-c3cnc(O[C@@H](C)C(F)(F)F)c(F)c3)cn12 [Compound 45, 3-[difluoro(isobutoxy)methyl]-6-[5-fluoro-6-[(1S)-2,2,2-trifluoro-1-methyl-ethoxy]-3-pyridyl]-[1,2,4]triazolo[4,3-a]pyrazine] | > 70
12 | FC(F)(F)COc1ccc(-c2cn3c(C(F)(F)OC4CC4)nnc3cn2)cn1 [Compound 74, 3-(cyclopropoxydifluoromethyl)-6-(6-(2,2,2-trifluoroethoxy)pyridin-3-yl)-[1,2,4]triazolo[4,3-a]pyrazine] | > 70
13 | C[C@H](Oc1ncc(-c2cn3c(C(F)(F)OC4CC4)nnc3cn2)cc1F)C(F)(F)F [Compound 63, 3-[cyclopropoxy(difluoro)methyl]-6-[5-fluoro-6-[(1S)-2,2,2-trifluoro-1-methyl-ethoxy]-3-pyridyl]-[1,2,4]triazolo[4,3-a]pyrazine] | > 70
14 | CC(C)OC(F)(F)c1nnc2ccc(-c3cnc(OCC(F)(F)F)c(F)c3)cn12 [Compound 4, 3-[difluoro(isopropoxy)methyl]-6-[5-fluoro-6-(2,2,2-trifluoroethoxy)-3-pyridyl]-[1,2,4]triazolo[4,3-a]pyridine] | > 70
15 | CCOC(F)(F)c1nnc2cnc(-c3cnc(O[C@@H](C)C(F)(F)F)c(F)c3)cn12 [Compound 33, 3-[ethoxy(difluoro)methyl]-6-[5-fluoro-6-[(1S)-2,2,2-trifluoro-1-methyl-ethoxy]-3-pyridyl]-[1,2,4]triazolo[4,3-a]pyrazine] | > 70
16 | COC(F)(F)c1nnc2ccc(-c3cnc(OC(C)(C)C(F)(F)F)c(F)c3)cn12 [Compound 24, 3-[difluoro(methoxy)methyl]-6-[5-fluoro-6-(2,2,2-trifluoro-1,1-dimethyl-ethoxy)-3-pyridyl]-[1,2,4]triazolo[4,3-a]pyridine] | > 70
17 | Fc1cc(-c2cn3c(C(F)(F)OCC4CC4)nnc3cn2)cnc1OCC(F)(F)F [Compound 9, 3-[cyclopropylmethoxy(difluoro)methyl]-6-[5-fluoro-6-(2,2,2-trifluoroethoxy)-3-pyridyl]-[1,2,4]triazolo[4,3-a]pyrazine] | > 70
18 | COC(F)(F)c1nnc2cc(C)c(-c3cnc(O[C@H](C)C(F)(F)F)c(F)c3)nn12 [Compound 66, 3-[difluoro(methoxy)methyl]-6-[5-fluoro-6-[(1R)-2,2,2-trifluoro-1-methyl-ethoxy]-3-pyridyl]-7-methyl-[1,2,4]triazolo[4,3-b]pyridazine] | > 70
